Tests used:
[1] = Imaging of individual organs removed from CA20948 tumor-bearing rat; assay type: in vivo
Description: (§1) Cytate 1 was evaluated in the CA20948 Lewis rat model. […] At 19 hours post injection the animal was again imaged (FIG. 9B). […] As a control, the organs were imaged again (FIG. 10A) and the image was compared with that of the same tissues in the uninjected rat (FIG. 10B).
Individual organs were removed and imaged.

[2] = system: pancreatic acinar carcinoma expressing the SST-2 receptor (CA20948); assay: In vivo fluorescence imaging of rat pancreatic acinar carcinoma (CA20948); conditions: for uptake (fluorescence) in tumor at 45 minutes: 45 minutes post injection, rats with CA20948 tumor
Source text: (§2) A non-invasive in vivo fluorescence imaging apparatus was employed to assess the efficacy of contrast agents developed for tumor detection in animal models. A LaserMax Inc. laser diode of nominal wavelength 780 nm and nominal power of 40 mW was used. The detector was a Princeton Instruments model RTE/CCD-1317-K/2 CCD camera with a Rodenstock 10 mm F2 lens (stock #542.032.002.20) attached. An 830 nm interference […] (CVI Laser Corp., part # F10-830-4-2) was mounted in front of the CCD input lens such that only emitted fluorescent light from the contrast agent was imaged. Typically, an image of the animal was taken pre-injection of contrast agent. This image was subsequently subtracted (pixel by pixel) from the post injection images. However, the background subtraction was […] done once the animal had been removed from the sample area and returned at a later time for images taken several hours post injection.
The imaging apparatus and the procedure used are described in Example 12. Rat pancreatic acinar carcinoma expressing the SST-2 receptor (CA20948) was induced by solid implant technique in the left flank area, and palpable masses were detected nine days post implant. The images obtained at 2 and 30 minutes post injection are shown in FIG. 7E-F. FIGS. 7E-F are images of a rat with an induced pancreatic acinar carcinoma (CA20948) expressing the SST-2 receptor imaged at two minutes (FIG. 7E) and 30 minutes (FIG. 7F) post injection.
The imaging apparatus and the procedure used are described in Example 12, except that each animal received 500 μL of a 1.0 mg/mL solution of Cytate 1 solution of 25% dimethylsulfoxide in water.
Rat pancreatic acinar carcinoma expressing the SST-2 receptor (CA20948) were induced by solid implant technique in the left flank area, and palpable masses were detected 24 days post implant. Images were obtained at various times post injection.
as §1

[3] = Monitoring of the blood clearance profile of peptide-dye conjugates; assay type: in vivo; conditions: rat ear; tail vein bolus; 830 nm after excitation at 780 nm
Source text: A laser of appropriate wavelength for excitation of the dye chromophore was directed into one end of a fiber optic bundle and the other end was positioned a few millimeters from the ear of a rat. A second fiber optic bundle was also positioned near the same ear to detect the emitted fluorescent light and the other end was directed into the optics and electronics for data collection. An interference filter (IF) in the collection optics train was used to select emitted fluorescent light of the appropriate wavelength for the dye chromophore.
Sprague-Dawley or Fischer 344 rats were used in these studies. The animals were anesthetized with urethane administered via intraperitoneal injection at a dose of 1.35 g/kg body weight. After the animals had achieved the desired plane of anesthesia, a 21 gauge butterfly with 12″ tubing was placed in the lateral tail vein of each animal and flushed with heparinized saline. The animals were placed onto a heating pad and kept warm throughout the entire study. The lobe of the left ear was affixed to a glass microscope slide to reduce movement and vibration.
Incident laser light delivered from the fiber optic was centered on the affixed ear. Data acquisition was then initiated, and a background reading of fluorescence was obtained prior to administration of the test agent. For Cytates 1 or 2, the peptide-dye conjugate was administered to the animal through a bolus injection, typically 0.5 to 2.0 mL, in the lateral tail vein. This procedure was repeated with several dye-peptide conjugates in normal and tumor-bearing rats. Representative profiles as a method to monitor blood clearance of the peptide-dye conjugate in normal and tumor-bearing animals are shown in FIGS. 12 to 16. The data were analyzed using a standard sigma plot software program for a one-compartment model.

[4] = system: Pancreatic Ductal Adenocarcinoma (DSL 6A); assay: In vivo fluorescence imaging of pancreatic ductal adenocarcinoma (DSL 6A) tumors; design: species or system rat
Source text: as §2
DSL 6A tumors were induced in male Lewis rats in the left flank area by the introduction of material from a solid (donor) implant, and the tumors were palpable in approximately 14 days. The animals were anesthetized with xylazine:ketamine:acepromazine, 1.5:1.5:0.5 at 0.8 mL/kg via intramuscular injection. The area of the tumor (left flank) was shaved to expose the tumor and the surrounding surface area. […]

[5] = system: Prostatic Carcinoma (Dunning R3327-H); assay: In vivo fluorescence imaging of prostatic carcinoma (R3327-H) tumors; design: species or system rat
Source text: as §2
The imaging apparatus and the procedure used are described as in Example 12. Prostate tumors (Dunning R3327-H) were induced in young male Copenhagen rats in the left flank area from a solid implant. These tumors grow very slowly and palpable masses were present 4-5 months post implant. FIGS. 7C-D are images of a rat with an induced prostatic carcinoma tumor (R3327-H) imaged at two minutes (FIG. 7C) and 30 minutes (FIG. 7D) post injection.

SMILES: C[C@@H](O)[C@H](NC(=O)[C@@H]1CSSC[C@H](NC(=O)[C@@H](Cc2ccccc2)NC(=O)CCN2C(=CC=CC=CC=CC3=[N+](CCC(=O)O)c4ccc5ccccc5c4C3(C)C)C(C)(C)c3c2ccc2ccccc32)C(=O)N[C@@H](Cc2ccc(O)cc2)C(=O)N[C@H](Cc2c[nH]c3ccccc23)C(=O)N[C@@H](CCCCN)C(=O)N[C@@H]([C@@H](C)O)C(=O)N1)C(=O)O [Cytate 1, monoOctreotate-Bisethylcarboxymethylindocyanine dye]
- uptake in adrenals ([1]; removed organ imaged): High uptake
- uptake in heart ([1]; removed organ imaged): significantly lower uptake
- uptake in liver ([1]; removed organ imaged): significantly lower uptake
- uptake in pancreas ([1]; removed organ imaged): High uptake
- uptake in spleen ([1]; removed organ imaged): significantly lower uptake
- uptake in muscle ([1]; removed tissue imaged): significantly lower uptake
- uptake in tumor tissue ([1]; removed tissue imaged): High uptake
- uptake (fluorescence) in tumor at 45 minutes [2]: still intense
- localization of dye in the tumor ([2]; 90 minutes post injection, CA20948 Lewis rat model): strong localization
- tumor visualization ([2]; 19 hours post injection, CA20948 Lewis rat model): easily observed
- time of maximal uptake into the tumor ([2]; CA20948 tumor, 500 μL of 1.0 mg/mL in 25% dimethylsulfoxide in water): about five
- persistence of dye fluorescence in the tumor ([2]; CA20948 tumor, post-injection): remained intense in the tumor for several hours
- blood fluorescence signal after bolus injection (rise) [3]: rapidly increased to a peak value
- blood fluorescence signal after peak (clearance from the bloodstream) [3]: decayed as a function of time

SMILES: C[C@@H](O)[C@H](NC(=O)[C@@H]1CSSC[C@H](NC(=O)[C@@H](Cc2ccccc2)NC(=O)CCN2C(=CC=CC=CC=CC3=[N+](CCC(=O)N[C@H](Cc4ccccc4)C(=O)N[C@H]4CSSC[C@@H](C(=O)N[C@H](C(=O)O)[C@@H](C)O)NC(=O)[C@H]([C@@H](C)O)NC(=O)[C@H](CCCCN)NC(=O)[C@@H](Cc5c[nH]c6ccccc56)NC(=O)[C@H](Cc5ccc(O)cc5)NC4=O)c4ccc5ccccc5c4C3(C)C)C(C)(C)c3c2ccc2ccccc32)C(=O)N[C@@H](Cc2ccc(O)cc2)C(=O)N[C@H](Cc2c[nH]c3ccccc23)C(=O)N[C@@H](CCCCN)C(=O)N[C@@H]([C@@H](C)O)C(=O)N1)C(=O)O [Cytate 2, bis Octreotate-Bisethylcarboxymethylindocyanine dye]
- blood fluorescence signal after bolus injection (rise) [3]: rapidly increased to a peak value
- blood fluorescence signal after peak (clearance from the bloodstream) [3]: decayed as a function of time

SMILES: CC1(C)C(/C=C/C=C/C=C/C=C2\N(CCCCS(=O)(=O)O)c3ccc4ccccc4c3C2(C)C)=[N+](CCCCS(=O)(=O)[O-])c2ccc3ccccc3c21 [ICG, indocyanine green, reference compound]
- dye intensity in the tumor ([2]; 30 minutes post-ICG injection vs 2 minutes, CA20948 tumor): considerably diminished and almost absent
- uptake (fluorescence) in tumor at 45 minutes [2]: mostly cleared
- perfusion of the agent into the tumor ([2]; CA20948 (pancreatic) tumor line, absent after 30 minutes post injection): slight but transient perfusion
- non-specific localization into the tumor line ([2]; CA20948, compared to the other two tumor lines): no non-specific localization
- dye intensity in the tumor ([4]; 30 minutes post-ICG injection vs 2 minutes, DSL 6A tumor, male Lewis rats, 500 μL of 0.42 mg/mL in water, tail vein): considerably diminished
- perfusion of the agent into the tumor ([4]; DSL 6/A (pancreatic) tumor line, CCD camera): slow perfusion of the agent over time into the tumor
- dye intensity in the tumor ([5]; 30 minutes post-ICG injection vs 2 minutes, R3327-H tumor, male Copenhagen rats): considerably diminished
- perfusion of the agent into the tumor ([5]; Dunning R3327H (prostate) tumor line, CCD camera): slow perfusion of the agent over time into the tumor

— patent US7566444B2, “Versatile hydrophilic dyes” (Mallinckrodt Inc., priority 2000, dated 2009)
